Measured values taken from US20090191193A1, “Aryl Vinyl Sulfides, Sulfones, Sulfoxides and Sulfonamides, Derivatives Thereof and Therapeutic Uses Thereof” (TEMPLE UNIVERSITY-OF THE COMMONWEALTH SYSTEM OF HIGHER …, priority 2006, published 2009).

How the values were obtained:
[1] = tested on: K562 (chronic myelogenous leukaemia); assay: Effect on tumor cell lines, viable cell count by trypan blue exclusion (Latham et al.): K562; type: cell-based; conditions: K562 chronic myelogenous leukaemia cells, viable cell count 96 hours after treatment
Description: (§1) The effect of the compounds of the invention on tumor cells was determined by the assay described by Latham et al., Oncogene 12:827-837 (1996). Tumor cells DU145 (prostate cancer), K562 (chronic myelogenous leukaemia), BT20 (breast carcinoma), H157 (non small cell lung carcinoma), or DLD1 (colon carcinoma) were plated in 6-well dishes at a cell density of 1.0×10^5 cells per 35-mm^2 well. […] The total number of viable cells was determined 96 hours later by trypsinizing the wells and counting the number of viable cells, as determined by trypan blue exclusion, using a hemacytometer. Normal HFL cells were treated with the same compounds under the same conditions of concentration and time.

DU145 (prostate cancer) = assay: Effect on tumor cell lines, viable cell count by trypan blue exclusion (Latham et al.): DU145; type: cell-based; conditions: DU145 prostate cancer cells, viable cell count 96 hours after treatment
Description: as §1

Row | SMILES | IC50 ([1]; Homo sapiens, K562, 96 h) | melting point | IC50 (DU145 (prostate cancer); Homo sapiens, DU-145, 96 h) | IC50 [1] | IC50 (DU145 (prostate cancer))
1 | COc1ccc(CS(=O)(=O)/C(C#N)=C/c2c(F)c(F)c(F)c(F)c2F)cc1OS(=O)(=O)c1ccc(C)cc1 [Example 38, (E)-2-[(4-methoxy-3-(4-methylphenylsulfonyloxy)phenyl)methanesulfonyl]-3-(2,3,4,5,6-pentafluorophenyl)acrylonitrile] | 50 to 100 µM | 170 to 172 °C | > 100 µM |  | 
2 | N#C/C(=C\c1ccc(F)cc1Cl)S(=O)(=O)Cc1ccc(Cl)cc1 [Example 41] | 50 to 100 µM | 124 to 126 °C | 50 to 100 µM |  | 
3 | Cc1cc(/C=C(\C#N)S(=O)(=O)Cc2ccc(Cl)cc2)ccc1F [Example 42] | 50 to 100 µM | 140 to 145 °C | 50 to 100 µM |  | 
4 | COc1ccc(/C=C(\C#N)S(=O)(=O)Cc2ccc(Cl)cc2)cc1O [Example 44] | 50 to 100 µM | 155 to 165 °C | > 100 µM |  | 
5 | N#C/C(=C\c1ccc(Br)cc1)S(=O)(=O)Cc1ccc(Cl)cc1 [Example 45] | 50 to 100 µM | 168 to 180 °C | 50 to 100 µM |  | 
6 | COc1ccc(/C=C(\C#N)S(=O)(=O)Cc2ccc(Cl)cc2)c(OC)c1OC [Example 46] | > 100 µM | 120 to 128 °C | > 100 µM |  | 
7 | N#C/C(=C\c1ccc(F)cc1)S(=O)(=O)Cc1ccc(Cl)cc1 [Example 47] | 50 to 100 µM | 145 to 150 °C | 50 to 100 µM |  | 
8 | COc1ccc(/C=C(\C#N)S(=O)(=O)Cc2ccc(Cl)cc2)c(F)c1 [Example 49] | 50 to 100 µM | 145 to 155 °C | > 100 µM |  | 
9 | COc1ccc(/C=C(\C#N)S(=O)(=O)Cc2ccc(Cl)cc2)cc1 [Example 50] | > 100 µM | 143 to 152 °C | > 100 µM |  | 
10 | COc1cc(OC)c(/C=C(\C#N)S(=O)(=O)Cc2ccc(Cl)cc2)c(OC)c1 [Example 53] | 50 to 100 µM | 177 to 180 °C | 50 to 100 µM |  | 
11 | CCOc1cc(/C=C(\C#N)S(=O)(=O)Cc2ccc(Cl)cc2)ccc1O [Example 54] | 50 to 100 µM | 155 to 169 °C | > 100 µM |  | 
12 | N#C/C(=C\c1ccc(O)c([N+](=O)[O-])c1)S(=O)(=O)Cc1ccc(Cl)cc1 [Example 59] | 50 to 100 µM | 195 to 205 °C | 50 to 100 µM |  | 
13 | N#C/C(=C\c1ccc(O)cc1O)S(=O)(=O)Cc1ccc(Cl)cc1 [Example 60] | > 100 µM | 250 to 255 °C | > 100 µM |  | 
14 | N#C/C(=C\c1ccc(Cl)c(Cl)c1Cl)S(=O)(=O)Cc1ccc(Cl)cc1 [Example 62] | 50 to 100 µM | 145 to 155 °C | > 100 µM |  | 
15 | Cc1ccc(/C=C(\C#N)S(=O)(=O)Cc2ccc(Cl)cc2Cl)s1 [Example 63] | > 100 µM | 118 to 124 °C | > 100 µM |  | 
16 | CN(C)c1ccc(/C=C(\C#N)S(=O)(=O)Cc2ccc(F)cc2)cc1 [Example 64] | 50 to 100 µM | 135 to 145 °C | 50 to 100 µM |  | 
17 | COc1ccc(/C=C(\C#N)S(=O)(=O)Cc2ccc(Cl)cc2Cl)c(F)c1 [Example 65] | 50 to 100 µM | 140 to 155 °C | 50 to 100 µM |  | 

Row | SMILES | IC50 ([1]; Homo sapiens, K562, 96 h) | melting point | IC50 (DU145 (prostate cancer); Homo sapiens, DU-145, 96 h) | IC50 [1] | IC50 (DU145 (prostate cancer))
18 | Cc1ccc(/C=C(\C#N)S(=O)(=O)Cc2ccc(Cl)cc2)cc1C [Example 66] | 50 to 100 µM | 191 to 202 °C | 50 to 100 µM |  | 
19 | N#C/C(=C\c1ccc(-c2ccccc2)cc1)S(=O)(=O)Cc1ccc(Cl)cc1 [Example 67] |  |  |  | > 100 µM | > 100 µM
20 | N#C/C(=C\c1ccccc1)S(=O)(=O)Cc1ccc(Cl)cc1 [Example 69] | > 100 µM | 142 to 157 °C | > 100 µM |  | 
21 | N#C/C(=C\c1ccccc1OCc1ccccc1)S(=O)(=O)Cc1ccc(Cl)cc1 [Example 70] | > 100 µM | 129 to 137 °C | > 100 µM |  | 
22 | CSc1ccc(/C=C(\C#N)S(=O)(=O)Cc2ccc(Cl)cc2Cl)cc1 [Example 76] |  |  |  | 50 to 100 µM | 50 to 100 µM
23 | CSc1ccc(/C=C(\C#N)S(=O)(=O)Cc2ccc(F)cc2)cc1 [Example 87] |  |  |  | 25 to 50 µM | 25 to 50 µM
24 | Cc1ccsc1/C=C(\C#N)S(=O)(=O)Cc1ccc(Cl)cc1Cl [Example 102] |  |  |  | 50 to 100 µM | > 100 µM
25 | Cc1ccsc1/C=C(\C#N)S(=O)(=O)Cc1ccc(Cl)cc1 [Example 120] |  |  |  | 25 to 50 µM | 50 to 100 µM
26 | Cc1ccsc1/C=C(\C#N)S(=O)(=O)Cc1ccccc1 [Example 127] |  |  |  | > 100 µM | > 100 µM
27 | N#C/C(=C\c1ccc(-c2ccccc2)cc1)S(=O)(=O)Cc1ccccc1 [Example 138] |  |  |  | > 100 µM | > 100 µM
28 | COc1ccc(CS(=O)(=O)/C(C#N)=C/c2ccc(-c3ccccc3)cc2)cc1 [Example 140] |  |  |  | > 100 µM | > 100 µM
29 | N#C/C(=C\c1ccc(-c2ccccc2)cc1)S(=O)(=O)Nc1ccc(Br)cc1 [Example 220] |  |  |  | 10 to 25 µM | 50 to 100 µM
30 | N#C/C(=C\c1ccc(-c2ccccc2)cc1)S(=O)(=O)Nc1ccc(F)cc1 [Example 239] |  |  |  | 10 to 25 µM | 50 to 100 µM
31 | Cc1ccc(NS(=O)(=O)/C(C#N)=C/c2ccc(-c3ccccc3)cc2)c(C)c1 [Example 260] |  |  |  | 25 to 50 µM | 50 to 100 µM
32 | CSc1ccc(/C=C(\C#N)S(=O)(=O)Nc2ccc(C)cc2C)cc1 [Example 276] |  |  |  | > 100 µM | > 100 µM
33 | COc1ccc(NS(=O)(=O)/C(C#N)=C/c2ccc(-c3ccccc3)cc2)cc1 [Example 286] |  |  |  | 50 to 100 µM | 50 to 100 µM
34 | COc1ccc(NS(=O)(=O)/C(C#N)=C/c2ccc(SC)cc2)cc1 [Example 293] |  |  |  | > 100 µM | > 100 µM

Continued, in another order:

Row | IC50 ([1]; Homo sapiens, K562, 96 h) | melting point | IC50 (DU145 (prostate cancer); Homo sapiens, DU-145, 96 h) | SMILES | IC50 [1] | IC50 (DU145 (prostate cancer))
35 | 1 µM | 110 to 112 °C | 25 µM | COc1ccc(CS(=O)(=O)/C(C#N)=C/c2c(F)c(F)c(F)c(F)c2F)cc1 [Example 11] |  | 
36 | 10 µM | 202 to 204 °C | 75 µM | N#C/C(=C\c1ccc(C#N)cc1F)S(=O)(=O)Cc1ccc(Br)cc1 [Example 16] |  | 
37 | 10 µM | 156 to 158 °C | 25 µM | COc1cccc(OC)c1/C=C(\C#N)S(=O)(=O)Cc1ccc(Br)cc1 [Example 18] |  | 
38 | 10 µM | 146 to 148 °C | 50 µM | N#C/C(=C\c1c(F)c(F)c(F)c(F)c1F)S(=O)(=O)Cc1ccc(Br)cc1 [Example 19] |  | 
39 | 10 µM | 158 to 160 °C | 75 µM | COc1cc(OC)c(/C=C(\C#N)S(=O)(=O)Cc2ccc(Br)cc2)c(OC)c1 [Example 20] |  | 
40 | 25 µM | 154 to 156 °C | 50 µM | N#C/C(=C\c1c(F)c(F)c(F)c(F)c1F)S(=O)(=O)Cc1ccc(Cl)cc1 [Example 21] |  | 
41 | 1 µM | 144 to 146 °C | 25 µM | COc1ccc(CS(=O)(=O)/C(C#N)=C/c2c(F)c(F)c(F)c(F)c2F)cc1[N+](=O)[O-] [Example 35] |  | 
42 | 5 µM | 198 to 200 °C | 25 µM | COc1cc(OC)c(/C=C(\C#N)S(=O)(=O)Cc2ccc(OC)c(N)c2)c(OC)c1 [Example 36] |  | 
43 | 1 to 10 µM | 162 to 164 °C | 1 to 10 µM | COc1cc(OC)c(/C=C(\C#N)S(=O)(=O)Cc2ccc(OC)c(F)c2)c(OC)c1 [Example 39] |  | 
44 | 1 to 10 µM | 123 to 126 °C | 25 to 50 µM | Cc1ccc(C)c(/C=C(\C#N)S(=O)(=O)Cc2ccc(Cl)cc2)c1 [Example 40] |  | 
45 | 1 to 10 µM | 243 to 253 °C | 1 to 10 µM | N#C/C(=C\c1ccc([N+](=O)[O-])cc1F)S(=O)(=O)Cc1ccc(Cl)cc1 [Example 48] |  | 
46 | 25 to 50 µM | 121 to 126 °C | 25 to 50 µM | N#C/C(=C\c1ccc(Cl)cc1Cl)S(=O)(=O)Cc1ccc(Cl)cc1 [Example 51] |  | 
47 | 10 to 25 µM | 145 to 155 °C | 25 to 50 µM | N#C/C(=C\c1ccc(Cl)c(Cl)c1)S(=O)(=O)Cc1ccc(Cl)cc1 [Example 52] |  | 
48 | 10 to 25 µM | 143 to 148 °C | 10 to 25 µM | CCOc1ccc(/C=C(\C#N)S(=O)(=O)Cc2ccc(Cl)cc2)cc1OC [Example 55] |  | 
49 | 25 to 50 µM | 155 to 165 °C | 50 to 100 µM | COc1cc(/C=C(\C#N)S(=O)(=O)Cc2ccc(Cl)cc2)cc(OC)c1 [Example 56] |  | 
50 | 25 to 50 µM | 192 to 202 °C | 25 to 50 µM | CC(=O)Oc1ccc(/C=C(\C#N)S(=O)(=O)Cc2ccc(Cl)cc2)cc1 [Example 57] |  | 
51 | 25 to 50 µM |  | 50 to 100 µM | CN(C)c1ccc(/C=C(\C#N)S(=O)(=O)Cc2ccc(Cl)cc2)cc1 [Example 58] |  | 
52 | 25 to 50 µM | 145 to 168 °C | 50 to 100 µM | N#C/C(=C\c1ccc(Cl)cc1)S(=O)(=O)Cc1ccc(Cl)cc1 [Example 61] |  | 
53 | 10 to 25 µM | 200 to 205 °C | 25 to 50 µM | N#C/C(=C\c1c[nH]c2ccccc12)S(=O)(=O)Cc1ccc(Cl)cc1 [Example 68] |  | 
54 | 2 µM |  | < 1 µM | COc1ccc(CS(=O)(=O)/C(=C/c2c(OC)cc(OC)cc2OC)[N+](=O)[O-])cc1 [Example 188] |  | 
55 | 5 µM |  | 2.5 µM | COc1cc(OC)c(/C=C(\[N+](=O)[O-])S(=O)(=O)Cc2ccc(F)cc2)c(OC)c1 [Example 189] |  | 
